In ChEMBL document CHEMBL3886283, “Cycloalkyl and heterocycloalkyl compounds as orexin receptor antagonists” (2015):

What was measured:
[1] = biological target: T1, Orexin/Hypocretin receptor type 1 (Homo sapiens, UniProt O43613); type: functional, cell-based, RBL-2H3
T1 sequence (O43613 whole entry): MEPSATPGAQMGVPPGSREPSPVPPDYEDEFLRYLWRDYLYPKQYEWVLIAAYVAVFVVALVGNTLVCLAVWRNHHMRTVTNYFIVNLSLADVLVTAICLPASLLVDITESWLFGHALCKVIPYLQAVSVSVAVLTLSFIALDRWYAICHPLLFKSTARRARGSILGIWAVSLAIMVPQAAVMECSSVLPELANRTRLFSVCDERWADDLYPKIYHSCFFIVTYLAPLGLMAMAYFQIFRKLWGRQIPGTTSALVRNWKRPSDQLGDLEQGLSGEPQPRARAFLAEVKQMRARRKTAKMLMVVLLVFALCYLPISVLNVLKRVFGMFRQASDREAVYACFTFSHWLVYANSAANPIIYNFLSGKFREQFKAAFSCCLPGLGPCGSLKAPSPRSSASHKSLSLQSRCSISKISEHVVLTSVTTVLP

Orexin receptor type 2 = biological target: T2, Orexin receptor type 2 (Homo sapiens, UniProt O43614); type: functional, cell-based, RBL-2H3
T2 sequence (O43614 whole entry): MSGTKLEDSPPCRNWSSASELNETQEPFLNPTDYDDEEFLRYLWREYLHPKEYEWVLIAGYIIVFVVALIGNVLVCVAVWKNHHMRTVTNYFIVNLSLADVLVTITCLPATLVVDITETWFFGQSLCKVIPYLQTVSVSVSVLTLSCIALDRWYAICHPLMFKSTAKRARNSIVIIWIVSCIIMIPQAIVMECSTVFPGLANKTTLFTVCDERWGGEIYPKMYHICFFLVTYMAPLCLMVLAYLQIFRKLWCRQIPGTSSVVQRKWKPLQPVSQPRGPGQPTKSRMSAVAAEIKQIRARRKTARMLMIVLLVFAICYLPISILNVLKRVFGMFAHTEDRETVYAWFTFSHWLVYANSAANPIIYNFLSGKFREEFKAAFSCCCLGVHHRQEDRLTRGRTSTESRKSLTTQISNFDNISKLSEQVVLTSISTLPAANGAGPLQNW

Row | IC50 [1] | IC50 (Orexin receptor type 2) | SMILES
1 | 0.27 µM | > 10 µM | Cc1ccc(-n2nccn2)c(C(=O)N[C@H]2CCC[C@@H]2Nc2ccc(Cl)cn2)c1
2 | 0.367 µM | > 10 µM | COc1cccc(Br)c1C(=O)N[C@H]1CCC[C@@H]1Nc1cnc(C(F)(F)F)cn1
3 | 0.406 µM | > 10 µM | O=C(N[C@H]1CCC[C@@H]1Nc1ccc(OC(F)(F)F)cn1)c1cc(Cl)ccc1-n1nccn1
